Measured values: the supplement of paper PMC10627819

Experiments:
[1] = system: S. pneumoniae D39V; experiment: Bliss interaction score (quartile over a dose matrix) (fitness difference); higher = more antagonism (negative = synergy)
Summary of the method: (§1)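 The Bliss score takes observed fitness and subtracts the expected fitness, calculated as a product of single-drug fitness values. Those single-drug values were inferred from the combination data. Fitness is OD595 at entry into stationary phase divided by the plate's robust no-drug mean, capped at 1, and the score is summarised by quartiles across technical, biological and donor/recipient replicates.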

[2] = system: B. subtilis 168; experiment: as above
Summary of the method: as §1

[3] = system: S. aureus Newman; experiment: as above
Summary of the method: as §1

[4] = system: S. aureus DSM 20231; experiment: as above
Summary of the method: as §1

[5] = system: S. pneumoniae D39V; experiment: fitness (endpoint OD595 vs no drug) (fraction); higher = more growth
Summary of the method: (§2)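 Fitness was defined as the optical density at the transition into stationary phase relative to the robust mean of no-drug control wells. Values were capped at 1. Cultures were started at OD595 0.01 in 384-well plates (30 µl, or 55 µl for S. pneumoniae) in TSB, LB Lennox or CY at 37 °C. OD595 was recorded every 30 min over 14 h, with the first reading subtracted as background.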

[6] = system: B. subtilis 168; experiment: as above
Summary of the method: as §2

[7] = system: S. aureus Newman; experiment: as above
Summary of the method: as §2

[8] = system: S. aureus DSM 20231; experiment: as above
Summary of the method: as §2
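For Bliss interaction score (quartile over a dose matrix) in this document: first quartile when negative (synergy) and third quartile when positive (antagonism).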

O=C(O[C@@H]1Cc2c(O)cc(O)cc2O[C@@H]1c1cc(O)c(O)c(O)c1)c1cc(O)c(O)c(O)c1 [EGCG] + Cc1cc(NS(=O)(=O)c2ccc(N)cc2)no1 [Sulfamethoxazol]
Conditions	Bliss interaction score
[1]	0.0423
[2]	-0.0762
[3]	0.0456
[4]	0.071

fitness
Conditions	partner 1 µg/mL	partner 2 µg/mL	partner 4 µg/mL
[5], first compound 12.5 µg/mL	0.934	0.905	0.965
[5], first compound 25 µg/mL	0.941	0.966	0.905
[5], first compound 50 µg/mL	0.951	≥ 1	0.725
[6], first compound 6.25 µg/mL	0.881	0.815	0.901
[6], first compound 25 µg/mL	–	0.299	0.341
[7], first compound 12.5 µg/mL	0.806	0.806	0.786
[7], first compound 25 µg/mL	0.764	0.801	0.779
[7], first compound 50 µg/mL	0.685	0.783	0.772
[8], first compound 12.5 µg/mL	0.841	0.863	0.854
[8], first compound 25 µg/mL	0.769	0.842	0.833
[8], first compound 50 µg/mL	0.75	0.733	0.795

fitness, one replicate
Conditions	first compound 6.25 µg/mL	first compound 12.5 µg/mL	first compound 25 µg/mL	first compound 50 µg/mL
[6], partner 0.5 µg/mL	0.831	0.551	0.271	–
[7], partner 8 µg/mL	–	0.712	0.703	0.675

CCC[C@@H]1C[C@@H](C(=O)N[C@@H]([C@H]2O[C@H](SC)[C@H](O)[C@@H](O)[C@H]2O)[C@H](C)Cl)N(C)C1 [Clindamycin] + COc1cccc2c1C(=O)c1c(O)c3c(c(O)c1C2=O)C[C@@](O)(C(=O)CO)C[C@@H]3O[C@H]1C[C@H](N)[C@H](O)[C@H](C)O1 [Doxorubicin]
Conditions	Bliss interaction score
[1]	-0.0723
[2]	0.0474
[3]	0.168
[4]	0.075

fitness
Conditions	partner 0.25 µg/mL	partner 0.5 µg/mL	partner 0.625 µg/mL	partner 1 µg/mL	partner 1.25 µg/mL	partner 2.5 µg/mL
[5], first compound 0.0125 µg/mL	0.671	0.697	–	0.759	–	–
[5], first compound 0.015 µg/mL	0.751	0.746	–	0.649	–	–
[5], first compound 0.025 µg/mL	0.41	0.375	–	0.439	–	–
[5], first compound 0.03 µg/mL	0.588	0.576	–	0.495	–	–
[5], first compound 0.05 µg/mL	0.115	0.104	–	0.131	–	–
[5], first compound 0.06 µg/mL	0.299	0.288	–	0.256	–	–
[6], first compound 0.0625 µg/mL	–	–	0.496	–	0.482	0.394
[6], first compound 0.125 µg/mL	–	–	0.363	–	0.408	0.3
[6], first compound 0.25 µg/mL	–	–	0.347	–	0.364	0.214
[7], first compound 0.0312 µg/mL	–	–	0.641	–	0.684	0.666
[7], first compound 0.125 µg/mL	–	–	0.202	–	0.204	0.136
[8], first compound 0.125 µg/mL	–	–	0.0581	–	0.0433	0.0502

fitness, [6], one replicate
Conditions	first compound 0.0039 µg/mL	first compound 0.0078 µg/mL	first compound 0.0156 µg/mL
partner 0.625 µg/mL	0.952	0.832	0.818
partner 1.25 µg/mL	≥ 1	0.858	0.793
partner 2.5 µg/mL	≥ 1	0.851	0.852

COc1c(N2C[C@@H]3CCCN[C@@H]3C2)c(F)cc2c(=O)c(C(=O)O)cn(C3CC3)c12 [Moxifloxacin] + CN[C@H](CC(C)C)C(=O)N[C@H]1C(=O)N[C@@H](CC(N)=O)C(=O)N[C@H]2C(=O)N[C@H]3C(=O)N[C@H](C(=O)N[C@H](C(=O)O)c4cc(O)cc(O)c4-c4cc3ccc4O)[C@H](O)c3ccc(c(Cl)c3)Oc3cc2cc(c3O[C@@H]2O[C@H](CO)[C@@H](O)[C@H](O)[C@H]2O[C@H]2C[C@](C)(N)[C@H](O)[C@H](C)O2)Oc2ccc(cc2Cl)[C@H]1O [Vancomycin]
Conditions	Bliss interaction score
[1]	0.0942
[2]	0.031
[3]	-0.0617
[4]	-0.0583

Conditions	fitness
[5], first compound 0.0037 µg/mL, partner 0.03125 µg/mL	0.881
[5], first compound 0.005 µg/mL, partner 0.125 µg/mL	0.909
[5], first compound 0.0075 µg/mL, partner 0.03125 µg/mL	0.908
[5], first compound 0.0075 µg/mL, partner 0.0625 µg/mL	0.853
[5], first compound 0.0075 µg/mL, partner 0.125 µg/mL	0.753
[5], first compound 0.01 µg/mL, partner 0.125 µg/mL	0.92
[5], first compound 0.015 µg/mL, partner 0.03125 µg/mL	0.897
[5], first compound 0.015 µg/mL, partner 0.0625 µg/mL	0.848
[5], first compound 0.015 µg/mL, partner 0.125 µg/mL	0.689
[5], first compound 0.02 µg/mL, partner 0.125 µg/mL	0.913
[7], first compound 0.0075 µg/mL, partner 0.1875 µg/mL	0.768
[7], first compound 0.0075 µg/mL, partner 0.375 µg/mL	0.75
[7], first compound 0.0075 µg/mL, partner 0.75 µg/mL	0.768
[7], first compound 0.015 µg/mL, partner 0.75 µg/mL	0.518
[7], first compound 0.03 µg/mL, partner 0.375 µg/mL	0.0717
[7], first compound 0.03 µg/mL, partner 0.75 µg/mL	0.0889
[8], first compound 0.0075 µg/mL, partner 0.1875 µg/mL	0.818
[8], first compound 0.0075 µg/mL, partner 0.375 µg/mL	0.854
[8], first compound 0.0075 µg/mL, partner 0.75 µg/mL	0.853
[8], first compound 0.015 µg/mL, partner 0.1875 µg/mL	0.745
[8], first compound 0.015 µg/mL, partner 0.375 µg/mL	0.761
[8], first compound 0.015 µg/mL, partner 0.75 µg/mL	0.84
[8], first compound 0.03 µg/mL, partner 0.1875 µg/mL	0.667
[8], first compound 0.03 µg/mL, partner 0.375 µg/mL	0.689
[8], first compound 0.03 µg/mL, partner 0.75 µg/mL	0.652

fitness, [8], one replicate
Conditions	partner 0.1875 µg/mL	partner 0.375 µg/mL	partner 0.75 µg/mL
first compound 0.06 µg/mL	0.688	0.694	0.704
first compound 0.12 µg/mL	0.46	0.455	0.46
